Source: patent US9499530B2 (HANGZHOU MINSHENG INSTITUTES FOR PHARMA RESEARCH, priority 2011, dated 2016)

Columns and labels:
[1] = biological target: EGFR (Epidermal Growth Factor Receptor 1) (Homo sapiens, UniProt P00533); assay: ELISA protein tyrosine kinase inhibition, EGFR; assay type: biochemical; details: ELISA, Poly(Glu, Tyr) 4:1 substrate, ATP 5 μM, test samples at 10-5 mol/l; read-out: EGFR inhibitory activity (IC50 class)
Excerpt: (§1) Determining the Effect of Test Samples at a Concentration of 10-5 Mol/l on the Activity of the Substrate Phosphoryation Catalyzed by EGFR (Epidermal Growth Factor Receptor 1), ErbB-2 (Epidermal Growth Factor Receptor 2), ErbB-4, KDR (Vascular Endothelial Growth Factor Receptor 2) Protein Tyrosine Kinases at Molecular Level
(§2) Enzyme-Linked Immunosorbent Assay (ELISA)
(§3) Main instrument: wavelength-tunable microplate reader (VERSAmax).
(§4) Main reagents: kinase reaction substrate Poly(Glu, Tyr) 4:1 from Sigma; anti-phosphotyrosine monoclonal antibody PY99 from Santa Cruz; horseradish peroxidase-labeled goat anti-mouse IgG from Calbiochem; ATP, DTT, OPD from Amresco, and ELISA plate from Corning.
(§5) Poly(Glu, Tyr)4:1 as an enzyme substrate was diluted by potassium ion-free PBS into 20 μg/ml, and an ELISA plate was coated and subjected to reaction for 12-16 h at 37° C. After the liquid in wells was removed, the plate was washed three time by T-PBS, 5 min for each time. The ELISA plate was then dried in an oven at 37° C. The coated wells were added with the test samples: the test samples were prepared for a stock solution with a concentration of 1×10^−2M in DMSO. The aliquot solution was stored at −20° C., and diluted to the desired concentration with reaction buffer before use. The resulting solution was added into the wells so that the final concentration of 10-5 mol/l in 100 μL reaction system can be obtained. At the same time, a positive control well was set up and a positive control compound Su11248 was added. ATP and test tyrosine kinases were added: ATP solution diluted with reaction buffer was added (the final concentration of ATP is 5 μM). Finally, the test tyrosine kinases solution diluted with reaction buffer was added. The total volume of the reaction system was […]. Meanwhile, a negative control well and a control well without enzyme were set up. The reaction system was placed in a wet box, and shaked for 1 hour at 37° C., shielding from light. After the reaction was complete, the plate was washed by T-PBS three times. Antibody PY99 was added at 100 μL/well; and the plate was shaked for 30 min at 37° C. After the reaction was complete, the plate was washed with T-PBS three times. Horseradish peroxidase-labeled goat anti-mouse IgG was added at 100 μL/well, and the plate was shaked for 30 min at 37° C. The plate was washed with T-PBS three times. OPD developing liquid was added at 100 μL/well, and reacted for 1-10 min at room temperature, shielding from light. 50 μL of 2 M H2SO4 was added to stop the reaction. A492 value was determined using wavelength-tunable microplate reader. The inhibition ratio of the samples can be calculated by the following equation: […]

[2] = biological target: ErbB-2 (Epidermal Growth Factor Receptor 2) (Homo sapiens, UniProt P04626); assay: ELISA protein tyrosine kinase inhibition, ErbB-2; assay type: biochemical; details: Poly(Glu, Tyr) 4:1 substrate, ATP 5 μM, test samples at 10-5 mol/l, read-out: ErbB2 inhibitory activity (IC50 class)
ErbB-2 (Epidermal Growth Factor Receptor 2), sequence (P04626 23-1255): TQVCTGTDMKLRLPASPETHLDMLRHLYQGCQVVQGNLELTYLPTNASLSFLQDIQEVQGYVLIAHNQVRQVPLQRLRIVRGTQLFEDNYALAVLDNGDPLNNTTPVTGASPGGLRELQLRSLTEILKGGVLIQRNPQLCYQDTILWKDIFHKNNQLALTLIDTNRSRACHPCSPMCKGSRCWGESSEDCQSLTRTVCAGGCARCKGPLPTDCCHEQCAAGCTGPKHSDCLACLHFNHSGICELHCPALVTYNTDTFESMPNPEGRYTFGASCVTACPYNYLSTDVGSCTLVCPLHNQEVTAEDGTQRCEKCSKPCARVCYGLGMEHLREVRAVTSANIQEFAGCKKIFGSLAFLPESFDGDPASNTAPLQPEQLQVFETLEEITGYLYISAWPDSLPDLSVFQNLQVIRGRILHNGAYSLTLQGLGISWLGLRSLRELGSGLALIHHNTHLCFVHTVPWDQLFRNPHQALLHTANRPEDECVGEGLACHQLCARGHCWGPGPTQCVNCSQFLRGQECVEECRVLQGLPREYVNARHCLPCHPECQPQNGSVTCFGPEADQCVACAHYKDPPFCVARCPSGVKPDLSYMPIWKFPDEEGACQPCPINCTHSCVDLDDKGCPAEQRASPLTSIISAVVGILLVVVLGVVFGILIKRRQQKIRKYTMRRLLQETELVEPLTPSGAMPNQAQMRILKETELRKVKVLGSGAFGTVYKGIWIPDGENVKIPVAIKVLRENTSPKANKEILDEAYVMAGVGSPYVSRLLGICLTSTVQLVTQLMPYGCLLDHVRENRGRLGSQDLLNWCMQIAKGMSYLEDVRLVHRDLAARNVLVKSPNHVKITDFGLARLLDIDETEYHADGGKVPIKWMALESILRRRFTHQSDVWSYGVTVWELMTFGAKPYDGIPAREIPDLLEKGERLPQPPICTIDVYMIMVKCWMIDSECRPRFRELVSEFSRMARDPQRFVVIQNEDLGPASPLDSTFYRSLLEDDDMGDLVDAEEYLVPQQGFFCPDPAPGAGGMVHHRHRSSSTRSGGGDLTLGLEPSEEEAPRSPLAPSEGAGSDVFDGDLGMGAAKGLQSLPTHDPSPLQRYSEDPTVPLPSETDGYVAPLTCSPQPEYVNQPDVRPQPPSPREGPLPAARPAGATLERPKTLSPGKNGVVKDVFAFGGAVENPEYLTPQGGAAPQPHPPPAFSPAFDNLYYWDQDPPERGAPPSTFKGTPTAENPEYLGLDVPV
Excerpt: as §1, §2, §3, §4, §5

EGFR (Epidermal Growth Factor Receptor 1), sequence (P00533 25-1210): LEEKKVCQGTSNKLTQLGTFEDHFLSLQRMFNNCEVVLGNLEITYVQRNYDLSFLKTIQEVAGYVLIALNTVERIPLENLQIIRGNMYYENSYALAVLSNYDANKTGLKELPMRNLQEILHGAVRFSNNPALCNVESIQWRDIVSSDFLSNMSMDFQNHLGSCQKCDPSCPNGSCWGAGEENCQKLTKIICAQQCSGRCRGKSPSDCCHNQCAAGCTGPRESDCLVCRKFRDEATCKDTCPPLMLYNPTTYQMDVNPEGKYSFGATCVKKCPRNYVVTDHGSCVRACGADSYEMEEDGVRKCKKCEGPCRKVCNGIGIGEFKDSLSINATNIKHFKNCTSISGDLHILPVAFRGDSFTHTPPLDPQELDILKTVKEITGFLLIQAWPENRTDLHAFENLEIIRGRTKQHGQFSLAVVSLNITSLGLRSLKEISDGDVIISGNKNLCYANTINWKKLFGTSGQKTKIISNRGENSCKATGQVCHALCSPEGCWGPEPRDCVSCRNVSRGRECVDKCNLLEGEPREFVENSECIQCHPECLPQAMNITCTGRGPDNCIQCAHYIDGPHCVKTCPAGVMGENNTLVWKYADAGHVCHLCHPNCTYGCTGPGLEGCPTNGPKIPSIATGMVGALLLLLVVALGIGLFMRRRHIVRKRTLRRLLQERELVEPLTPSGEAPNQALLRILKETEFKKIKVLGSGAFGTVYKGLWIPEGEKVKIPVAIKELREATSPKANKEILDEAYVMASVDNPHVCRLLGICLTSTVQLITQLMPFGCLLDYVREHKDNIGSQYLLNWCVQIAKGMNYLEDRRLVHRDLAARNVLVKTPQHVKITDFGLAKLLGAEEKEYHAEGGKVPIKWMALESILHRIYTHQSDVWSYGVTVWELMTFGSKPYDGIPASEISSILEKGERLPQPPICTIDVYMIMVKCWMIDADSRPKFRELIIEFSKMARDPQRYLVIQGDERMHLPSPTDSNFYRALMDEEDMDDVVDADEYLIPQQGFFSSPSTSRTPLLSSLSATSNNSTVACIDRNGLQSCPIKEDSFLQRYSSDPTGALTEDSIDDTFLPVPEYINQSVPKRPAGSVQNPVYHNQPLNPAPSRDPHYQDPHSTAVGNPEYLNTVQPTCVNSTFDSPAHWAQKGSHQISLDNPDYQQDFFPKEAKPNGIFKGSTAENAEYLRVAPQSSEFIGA

IC50 [1] | IC50 [2] | Compound
< 10 µM | < 10 µM | O=C(O)C(CS)NCc1ccc(-c2ccc3ncnc(Nc4ccc(OCc5cccc(F)c5)c(Cl)c4)c3c2)o1 (centres unmarked) [MS 29]
< 10 µM | > 10 µM | CCCCCCNCc1ccc(-c2ccc3ncnc(Nc4ccc(OCc5cccc(F)c5)c(Cl)c4)c3c2)o1 [MS 2, N-(3-chloro-4-((3-fluorobenzyl)oxy)phenyl)-6-(5-((n-hexylamino)methyl)-2-furyl)-4-quinazolinamine]
< 10 µM | < 10 µM | OCCCCC(O)CNCc1ccc(-c2ccc3ncnc(Nc4ccc(OCc5cccc(F)c5)c(Cl)c4)c3c2)o1 (centres unmarked) [MS 17, N-(3-chloro-4-((3-fluorobenzyl)oxy)phenyl)-6-(5-(((2,6-dihydroxyhexyl)amino)methyl)-2-furyl)-4-quinazolinamine]
< 10 µM | < 10 µM | Oc1cc(F)cc(CCNCc2ccc(-c3ccc4ncnc(Nc5ccc(OCc6cccc(F)c6)c(Cl)c5)c4c3)o2)c1 [MS 15, N-(3-chloro-4-((3-fluorobenzyl)oxy)phenyl)-6-(5-(((2-(3-hydroxy-5-fluorophenyl)ethyl)amino)methyl)-2-furyl)-4-quinazolinamine]
< 10 µM | > 10 µM | Fc1cccc(COc2ccc(Nc3ncnc4ccc(-c5ccc(CNCc6cccc(Cl)c6)o5)cc34)cc2Cl)c1 [MS 11, N-(3-chloro-4-((3-fluorobenzyl)oxy)phenyl)-6-(5-(((3-chlorobenzyl)amino)methyl)-2-furyl)-4-quinazolinamine]
< 10 µM | < 10 µM | CCN(CC)Cc1ccc(-c2ccc3ncnc(Nc4ccc(OCc5cccc(F)c5)c(Cl)c4)c3c2)o1 [MS 4]
< 10 µM | < 10 µM | COc1cc(CCNCc2ccc(-c3ccc4ncnc(Nc5ccc(OCc6cccc(F)c6)c(Cl)c5)c4c3)o2)cc(OC)c1 [MS 14]
< 10 µM | < 10 µM | O=C(O)C(Cc1ccccc1)NCc1ccc(-c2ccc3ncnc(Nc4ccc(OCc5cccc(F)c5)c(Cl)c4)c3c2)o1 (centres unmarked) [MS 24, N-(3-chloro-4-((3-fluorobenzyl)oxy)phenyl)-6-(5-((((1-carboxy-2-phenyl)ethyl)amino)methyl)-2-furyl)-4-quinazolinamine]

Continued, compound first:

Compound | IC50 [1] | IC50 [2]
NC(CCCNCc1ccc(-c2ccc3ncnc(Nc4ccc(OCc5cccc(F)c5)c(Cl)c4)c3c2)o1)C(=O)O (centres unmarked) [MS 32, N-(3-chloro-4-((3-fluorobenzyl)oxy)phenyl)-6-(5-((((4-carboxy-4-amino)butyl)amino)methyl)-2-furyl)-4-quinazolinamine] | < 10 µM | < 10 µM
NC(=O)CC(NCc1ccc(-c2ccc3ncnc(Nc4ccc(OCc5cccc(F)c5)c(Cl)c4)c3c2)o1)C(=O)O (centres unmarked) [MS 30, N-(3-chloro-4-((3-fluorobenzyl)oxy)phenyl)-6-(5-((((1-carboxy-2-aminoformyl)ethyl)amino)methyl)-2-furyl)-4-quinazolinamine] | < 10 µM | < 10 µM
Fc1cccc(COc2ccc(Nc3ncnc4ccc(-c5ccc(CNOCc6ccccc6)o5)cc34)cc2Cl)c1 [MS 19, N-(3-chloro-4-((3-fluorobenzyl)oxy)phenyl)-6-(5-(((benzyloxy)amino)methyl)-2-furyl)-4-quinazolinamine] | < 10 µM | < 10 µM
O=C(O)C(CO)NCc1ccc(-c2ccc3ncnc(Nc4ccc(OCc5cccc(F)c5)c(Cl)c4)c3c2)o1 (centres unmarked) [MS 28, N-(3-chloro-4-((3-fluorobenzyl)oxy)phenyl)-6-(5-((((1-carboxy-2-hydroxy)ethyl)amino)methyl)-2-furyl)-4-quinazolinamine] | < 10 µM | < 10 µM
O=[N+]([O-])c1ccc(CCNCc2ccc(-c3ccc4ncnc(Nc5ccc(OCc6cccc(F)c6)c(Cl)c5)c4c3)o2)cc1 [MS 12, N-(3-chloro-4-((3-fluorobenzyl)oxy)phenyl)-6-(5-(((2-(4-nitrophenyl)ethyl)amino)methyl)-2-furyl)-4-quinazolinamine] | < 10 µM | < 10 µM
Fc1cc(Cl)cc(CCNCc2ccc(-c3ccc4ncnc(Nc5ccc(OCc6cccc(F)c6)c(Cl)c5)c4c3)o2)c1 [MS 16, N-(3-chloro-4-((3-fluorobenzyl)oxy)phenyl)-6-(5-(((2-(3-chloro-5-fluorophenyl)ethyl)amino)methyl)-2-furyl)-4-quinazolinamine] | < 10 µM | > 10 µM
O=C(O)CNCc1ccc(-c2ccc3ncnc(Nc4ccc(OCc5cccc(F)c5)c(Cl)c4)c3c2)o1 [MS 22, N-(3-chloro-4-((3-fluorobenzyl)oxy)phenyl)-6-(5-(((carboxymethyl)amino)methyl)-2-furyl)-4-quinazolinamine] | < 10 µM | < 10 µM
Oc1ccc(CCNCc2ccc(-c3ccc4ncnc(Nc5ccc(OCc6cccc(F)c6)c(Cl)c5)c4c3)o2)cc1 [MS 13, N-(3-chloro-4-((3-fluorobenzyl)oxy)phenyl)-6-(5-(((2-(4-hydroxyphenyl)ethyl)amino)methyl)-2-furyl)-4-quinazolinamine] | < 10 µM | < 10 µM
NCCCC(NCc1ccc(-c2ccc3ncnc(Nc4ccc(F)c(Cl)c4)c3c2)o1)C(=O)O (centres unmarked) [MS 38, N-(3-chloro-4-fluorophenyl)-6-(5-((((1-carboxy-4-amino)butyl)amino)methyl)-2-furyl)-4-quinazolinamine] |  | < 10 µM
O=[N+]([O-])c1ccc(CCNCc2ccc(-c3ccc4ncnc(Nc5ccc(F)c(Cl)c5)c4c3)o2)cc1 [MS 40, N-(3-chloro-4-fluorophenyl)-6-(5-(((2-(4-nitrophenyl)ethyl)amino)methyl)-2-furyl)-4-quinazolinamine] |  | < 10 µM
NC(CCCNCc1ccc(-c2ccc3ncnc(Nc4ccc(F)c(Cl)c4)c3c2)o1)C(=O)O (centres unmarked) [MS 37, N-(3-chloro-4-fluorophenyl)-6-(5-((((4-carboxy-4-amino)butyl)amino)methyl)-2-furyl)-4-quinazolinamine] |  | < 10 µM
NC1CCCC(NCc2ccc(-c3ccc4ncnc(Nc5ccc(OCc6cccc(F)c6)c(Cl)c5)c4c3)o2)C1 (centres unmarked) [MS 21, N-(3-chloro-4-((3-fluorobenzyl)oxy)phenyl)-6-(5-(((3-aminocyclohexyl)amino)methyl)-2-furyl)-4-quinazolinamine] | < 10 µM | < 10 µM
CCNCc1ccc(-c2ccc3ncnc(Nc4ccc(OCc5cccc(F)c5)c(Cl)c4)c3c2)o1 [MS 3, N-(3-chloro-4-((3-fluorobenzyl)oxy)phenyl)-6-(5-((ethylamino)methyl)-2-furyl)-4-quinazolinamine] | < 10 µM | < 10 µM
COCCCCNCc1ccc(-c2ccc3ncnc(Nc4ccc(OCc5cccc(F)c5)c(Cl)c4)c3c2)o1 [MS10·dimethanesulfonate, N-(3-chloro-4-((3-fluorobenzyl)oxy)phenyl)-6-(5-(((4-methoxybutyl)amino)methyl)-2-furyl)-4-quinazolinamine] | < 10 µM | < 10 µM
